The values that follow come from patent US6274594A, “Isoquinoline derivatives and their therapeutical use” (SmithKline Beecham p.l.c., priority 1997, dated 2001).

SMILES strings stand for the structures.

For assay [1], the target named is novel receptor obtainable from rat forebrain tissue. Briefly: [3H]-Compound A radioligand binding assay. Conditions: competition with [3H]-Compound A (usually 20 nM). On the procedure: WO 92/22293 (SmithKline Beecham) discloses compounds having anti-convulsantactivity, including inter alia the compound trans-(+)-6-acetyl-4S-(4-fluorobenzoylamino)-3,4-dihydro-2,2-dimethyl-2H-1-benzopyran-3R-ol (hereinafter referred to as Compound A). […] The affinity of test compounds to the novel receptor site is assessed as follows.
Whole forebrain tissue is obtained from rats. The tissue is first homogenised in buffer (usually 50 mM Tris/HCl, pH 7.4). The homogenised tissue is washed by centrifugation and resuspension in the same buffer, then stored at -70° C. until used.
To carry out the radioligand binding assay, aliquots of tissue prepared as above (usually at a concentration of 1-2 mg protein/ml) are mixed with aliquots of [3H]-Compound A dissolved in buffer. The final concentration of [3H]-Compound A in the mixture is usually 20 nM. The mixture is incubated at room temperature for 1 hour. [3H]-Compound A bound to the tissue is then separated from unbound [3H]-Compound A by filtration through Whatman GF/B glass fibre filters. The filters are then washed rapidly with ice-cold buffer. The amount of radioactivity bound to the tissue trapped on the filters is measured by addition of liquid scintillation cocktail to the filters followed by counting in a liquid scintillation counter. […]

For assay [2], the system named is electrically-induced seizures (maximal electroshock seizure threshold). Briefly: Maximal electroshock seizure (MEST) threshold test, rat model. Type of assay: in vivo. Conditions: 2 mg/kg p.o., suspension in methyl cellulose, one hour post dosing, statistically significant. On the procedure:
The maximal electroshock seizure (MEST) threshold test in rodents is particularly sensitive for detecting potential anticonvulsant properties^1. In this model, anticonvulsant agents elevate the threshold to electrically-induced seizures whilst proconvulsants lower the seizure threshold.
Mice (naive male, Charles River, U.K. CD-1 strain, 25-30 g) are randomly assigned to groups of 10-20 and dosed orally or intraperitoneally at a dose volume of 10 ml/kg with various doses of compound (0.3-300 mg/kg) or vehicle. Mice are then subjected at 30 or 60 min post dose to a single electroshock (0.1 sec, 50 Hz, sine wave form) administered via corneal electrodes. The mean current and standard error required to induce a tonic seizure in 50% (CC50) of the mice in a particular treatment group is determined by the `up and down` method of Dixon and Mood (1948)^2. Statistical comparisons between vehicle- and drug-treated groups are made using the method of Litchfield and Wilcoxon (1949)^3.
The threshold for maximal (tonic hindlimb extension) electroshock seizures in male rats (Sprague Dawley, 80-150 g, 6 weeks old) was determined by a Hugo Sachs Electronik stimulator which delivered a constant current (0.3 sec duration; from 1-300 mA in steps of 5-20 mA). […]
The percentage increase or decrease in CC50 for each group compared to the control is calculated. […]
(Protection in the maximal electroshock model is a classic sign of anticonvulsant action.)

As to `CN1CCc2ccc(NC(=O)N3CCc4ccccc43)cc2C1` [Example 1, 2,3-Dihydroindole-1-carboxylic Acid (2-methyl-1,2,3,4-tetrahydroisoquinolin-7-yl)amide], in assay [1], the pKi value result is given as “greater than 8”. For the same molecule, the “increase in seizure threshold (CC50) compared to control” value in assay [2] amounted to 225%.
